How the values were obtained:
[1] = target: T1, FAP5-expressing HT1080-FAP cells (human FAP-transfected) (Homo sapiens, UniProt Q12884); experiment: Confocal binding studies of FAP-targeting ligand on HT1080-FAP cells; assay type: cell-based
T1 construct: expressed in transfected cells; host or cells: HT1080
T1 sequence (Q12884 1-760): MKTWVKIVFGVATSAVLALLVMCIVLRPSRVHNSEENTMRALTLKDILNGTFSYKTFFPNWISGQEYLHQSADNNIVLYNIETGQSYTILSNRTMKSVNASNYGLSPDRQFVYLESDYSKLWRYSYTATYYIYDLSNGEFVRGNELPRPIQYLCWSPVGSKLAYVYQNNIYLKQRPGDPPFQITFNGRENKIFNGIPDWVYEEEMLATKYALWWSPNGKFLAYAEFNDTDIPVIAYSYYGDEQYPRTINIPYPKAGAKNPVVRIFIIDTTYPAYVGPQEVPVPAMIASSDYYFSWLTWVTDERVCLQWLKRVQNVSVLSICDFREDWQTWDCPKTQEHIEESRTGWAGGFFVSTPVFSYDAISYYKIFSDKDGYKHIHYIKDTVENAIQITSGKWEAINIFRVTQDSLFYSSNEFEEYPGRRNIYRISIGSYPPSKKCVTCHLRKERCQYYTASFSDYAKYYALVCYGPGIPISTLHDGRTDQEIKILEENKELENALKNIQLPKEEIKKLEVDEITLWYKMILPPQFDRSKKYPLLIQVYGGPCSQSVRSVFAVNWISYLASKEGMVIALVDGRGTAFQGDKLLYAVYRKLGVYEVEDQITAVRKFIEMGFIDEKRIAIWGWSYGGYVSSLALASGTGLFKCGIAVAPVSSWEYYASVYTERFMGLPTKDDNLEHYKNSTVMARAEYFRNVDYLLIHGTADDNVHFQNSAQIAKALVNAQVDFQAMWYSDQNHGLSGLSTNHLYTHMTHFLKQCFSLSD
Description: Method 1: HT1080-FAP cells ([…]) were seeded in 4-well confocal plates. The cells were allowed to grow as a monolayer over 24 h at 37° C. and were incubated with various concentrations of conjugate ranging from 3.0 nM (lowest) to 25 nM (highest) in 1% FBS in PBS for 1 h at 37° C. Cells were washed with 1% FBS (3×500 μL) and the cells were left in 500 μl of 1% FBS and images were acquired with confocal microscopy. Again, the PBS in cells was replaced with growth media and the cells were re-incubated at 37° C. for 8 to 48 h. Images acquired at different concentrations of the compound at 37° C. are shown in FIG. 3, at different time points are shown in FIG. 4, and with 100-fold excess of competition ligand are shown in FIG. 5.
Method 2: Human FAP-transfected HT1080-FAP cells were (100,000) were plated on 4-well confocal plates and incubated with different concentrations (50 nM, 25 nM, 12.5 nM, 6.25 nM, 3.125 nM and 1.65 nM) of the compound for 1 h at 37° C. The unbound fluorescence was removed by washing the cells 3× with medium, and cell-bound fluorescence was imaged using an Olympus confocal microscope. The experiment was done in triplicate.

[2] = target: T2, FAP5 on HT1080-FAP (HT1080-hFAP) cells (Homo sapiens, UniProt Q12884); experiment: Binding assay (cell-bound fluorescence, apparent Kd) on HT1080-FAP cells
T2 construct: expressed in transfected cells; host or cells: HT1080
T2 sequence (Q12884 1-760): T1 sequence (Q12884 1-760)
Description: Method 1: HT1080-FAP cells (200000 cells/well) were seeded in a 24-well plate. The cells were allowed to grow as a monolayer over 24 h and incubated with various concentrations of FAP-targeted rhodamine conjugate either in the presence or absence of excess competition ligand (ligand without dye). After incubating for 1 h at 4° C. the cells were washed 3× with PBS to remove unbound fluorescence. The cells were then dissolved in 1% SDS and the cell-bound fluorescence was measured using a Neo2 Plate Reader.
(§1) Method 2: 100,000 HT1080-hFAP and HT1080 cells were seeded in amine-coated 24-well plates to ensure cell adherence. Upon formation of a monolayer, cells were incubated with various concentrations of the compound in the presence or absence of excess of unlabeled ligand. After incubation for 1 h, the cells were washed 3× with medium to remove to unbound fluorescence and dissolved in 1% SDS. The cell-bound fluorescence was measured using a fluorescence spectrophotometer (NeO2 Plate reader) set with a λex=555 nm and λem=575 nm. Cell-bound fluorescence was plotted against various concentrations and the apparent Kd was determined by using one-site binding (hyperbola) curve fit in GraphPad prism7. The experiment was done in triplicate.

[3] = system: HT1080 cells that do not express FAP5; experiment: Binding assay on HT1080 cells that do not express FAP5; set-up: species or system human; settings: FIG. 8
Description: as §1

[4] = target: T3, FAP (e.g., FAP5) on HEK-FAP cells (Homo sapiens, UniProt Q12884); experiment: Displacement binding curves in HEK-FAP cells; settings: displacement binding (FIGS. 21-22), read-out: affinity for cells that express FAP
T3 construct: expressed in transfected cells; host or cells: HEK
T3 sequence (Q12884 1-760): T1 sequence (Q12884 1-760)

Structure (SMILES)	time remaining localized and internalized to FAP5-expressing cells ([1]; 12.5 nM, e.g., 1 hour, 8 hours, 24 hours, or more (FIG. 4))	localization to cells expressing FAP5 (confocal) ([1]; HT1080-FAP cells, 50 nM, 25 nM, 12.5 nM, and 6.5 nM (FIG. 3))	Kd ([2]; cells expressing FAP5 (FIG. 7)) [nM]	binding to HT1080 cells expressing FAP5 in the presence of an unlabelled FAP5 ligand ([2]; competitor e.g., compound 8, FIG. 8)	binding to HT1080 cells that do not express FAP5 [3]	Kd [4] [nM]
CN(C)c1ccc2c(c1)OC1=CC(=[N+](C)C)C=CC1C2c1ccc(C(=O)NCCOCCOCCOCCOCCC(=O)NCCNC(=O)c2ccc(-c3cn(Cc4cccc5c4CN(C(=O)C[C@@H]4C[C@@H](C(=O)N6CC(F)(F)C[C@H]6C#N)NC4=O)C5)nn3)cc2)cc1C(=O)O (stereo partly drawn) [compound 1]	at least 1 hour	localizes to cells	5 to 15	does not bind	does not bind	1 to 10
CN(C)c1ccc2c(-c3ccc(C(=O)NCCNC(=O)c4cccc5c4CN(C(=O)C[C@@H]4C[C@@H](C(=O)N6CC(F)(F)C[C@H]6C#N)NC4=O)C5)cc3C(=O)[O-])c3ccc(=[N+](C)C)cc-3oc2c1 [compound 5]						1 to 10
CN(C)c1ccc2c(-c3ccc(C(=O)NCCNC(=O)CCc4cccc5c4CN(C(=O)C[C@@H]4C[C@@H](C(=O)N6CC(F)(F)C[C@H]6C#N)NC4=O)C5)cc3C(=O)[O-])c3ccc(=[N+](C)C)cc-3oc2c1 [compound 6]						1 to 10
N#C[C@@H]1C[C@H](F)CN1C(=O)[C@@H]1C[C@@H](CC(=O)N2Cc3cccc(Cn4cc(-c5ccc(C(=O)NCCNC(=O)CCC(=O)O)cc5)nn4)c3C2)C(=O)N1 [compound 21]						1 to 10

Source: patent publication US20220409747A1, “FIBROBLAST ACTIVATION PROTEIN (FAP)-TARGETED IMAGING AND THERAPY OF CANCERS AND OTHER FIBROTIC AND INFLAMMATORY DISEASES” (Purdue Research Foundation, priority 2019, published 2022)
